Results taken from ChEMBL document CHEMBL2073748, “Na(+)-dependent carnitine transport by organic cation transporter (OCTN2): its pharmacological and toxicological relevance” (J Pharmacol Exp Ther, 1999).
Non-standard residues stand in square brackets, D forms with d. Residues, ends and D or L forms follow the SMILES beside them. Sar = CNCC(=O)O

How the values were obtained:
[1] = molecular target: T1, Organic cation/carnitine transporter 2 (Homo sapiens, UniProt O76082); assay: TP_TRANSPORTER: inhibition of Carnitine uptake (Carnitine: 0.010? uM, Gly-Sar: 500 uM) in OCTN2-expressing HEK293 cells; format: functional, cell-based; conditions: hek293, 500 µM
T1 sequence (O76082 whole entry): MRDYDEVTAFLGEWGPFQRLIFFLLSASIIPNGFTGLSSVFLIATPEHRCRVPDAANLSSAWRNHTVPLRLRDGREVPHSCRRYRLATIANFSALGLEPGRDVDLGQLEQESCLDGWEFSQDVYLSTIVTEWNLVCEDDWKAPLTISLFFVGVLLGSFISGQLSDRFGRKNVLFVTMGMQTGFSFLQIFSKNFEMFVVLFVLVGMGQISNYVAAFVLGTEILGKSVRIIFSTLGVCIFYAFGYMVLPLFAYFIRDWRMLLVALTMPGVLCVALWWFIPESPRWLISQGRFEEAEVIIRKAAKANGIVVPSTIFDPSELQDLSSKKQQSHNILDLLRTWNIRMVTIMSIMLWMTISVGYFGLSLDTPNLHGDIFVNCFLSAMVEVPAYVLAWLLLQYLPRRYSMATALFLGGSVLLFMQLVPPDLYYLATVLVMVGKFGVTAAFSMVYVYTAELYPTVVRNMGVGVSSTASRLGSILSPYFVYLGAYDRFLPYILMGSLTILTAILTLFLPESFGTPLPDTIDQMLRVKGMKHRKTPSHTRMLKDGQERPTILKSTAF

[2] = molecular target: T2, OCTN2 (organic cation/carnitine transporter 2) (Homo sapiens, UniProt O76082); assay: TP_TRANSPORTER: inhibition of Carnitine uptake (Carnitine: 0.010? uM, GPFX: 500 uM) in OCTN2-expressing HEK293 cells; format: functional, cell-based; design: scale not given: the % may be the effect or the level left; conditions: HEK293 cells that express OCTN2, probe Carnitine, read-out: Activity
T2 sequence (O76082 whole entry): T1 sequence (O76082 whole entry)

[3] = molecular target: T1, Organic cation/carnitine transporter 2; assay: TP_TRANSPORTER: inhibition of Carnitine uptake (Carnitine: 0.010? uM, Guanidine: 500 uM) in OCTN2-expressing HEK293 cells; format: functional, cell-based; conditions: hek293, 500 µM
[4] = molecular target: T1, Organic cation/carnitine transporter 2; assay: (§1) TP_TRANSPORTER: uptake in OCTN2-expressing HEK293 cells; format: functional, cell-based
[5] = molecular target: T2, OCTN2 (organic cation/carnitine transporter 2); assay: TP_TRANSPORTER: inhibition of Carnitine uptake (Carnitine: 0.010? uM, LFLX: 500 uM) in OCTN2-expressing HEK293 cells; format: functional, cell-based; design: scale not given: the % may be the effect or the level left; conditions: HEK293 cells that express OCTN2, probe Carnitine, read-out: Activity
[6] = molecular target: T2, OCTN2 (organic cation/carnitine transporter 2); assay: in vitro; conditions: HEK293 cells that express OCTN2, probe Carnitine
Description: TP_TRANSPORTER: inhibition of Carnitine uptake (Carnitine: 0.010? uM, Nicotine: 500 uM) in OCTN2-expressing HEK293 cells

[7] = molecular target: T2, OCTN2 (organic cation/carnitine transporter 2); assay: TP_TRANSPORTER: inhibition of Carnitine uptake (Carnitine: 0.010? uM, OFLX: 500 uM) in OCTN2-expressing HEK293 cells; format: functional, cell-based; design: scale not given: the % may be the effect or the level left; conditions: HEK293 cells that express OCTN2, probe Carnitine, read-out: Activity
[8] = molecular target: T2, OCTN2 (organic cation/carnitine transporter 2); assay: TP_TRANSPORTER: inhibition of Carnitine uptake (Carnitine: 0.010? uM, Probenecid: 500 uM) in OCTN2-expressing HEK293 cells; format: functional, cell-based; design: scale not given: the % may be the effect or the level left; conditions: HEK293 cells that express OCTN2, probe Carnitine, read-out: Activity
[9] = molecular target: T2, OCTN2 (organic cation/carnitine transporter 2); assay: TP_TRANSPORTER: inhibition of Carnitine uptake (Carnitine: 0.010? uM, Procainamide: 500 uM) in OCTN2-expressing HEK293 cells; format: functional, cell-based; design: scale not given: the % may be the effect or the level left; conditions: HEK293 cells that express OCTN2, probe Carnitine, read-out: Activity
[10] = molecular target: T2, OCTN2 (organic cation/carnitine transporter 2); assay: TP_TRANSPORTER: inhibition of Carnitine uptake (Carnitine: 0.010? uM, Pyrilamine: 500 uM) in OCTN2-expressing HEK293 cells; format: functional, cell-based; design: scale not given: the % may be the effect or the level left; conditions: HEK293 cells that express OCTN2, probe Carnitine, read-out: Activity
[11] = molecular target: T2, OCTN2 (organic cation/carnitine transporter 2); assay: TP_TRANSPORTER: inhibition of Carnitine uptake (Carnitine: 0.010? uM, Quinidine: 500 uM) in OCTN2-expressing HEK293 cells; format: functional, cell-based; design: scale not given: the % may be the effect or the level left; conditions: HEK293 cells that express OCTN2, probe Carnitine, read-out: Activity
[12] = molecular target: T2, OCTN2 (organic cation/carnitine transporter 2); assay: TP_TRANSPORTER: inhibition of Carnitine uptake (Carnitine: 0.010? uM, Quinine: 500 uM) in OCTN2-expressing HEK293 cells; format: functional, cell-based; design: scale not given: the % may be the effect or the level left; conditions: HEK293 cells that express OCTN2, probe Carnitine, read-out: Activity
[13] = molecular target: T2, OCTN2 (organic cation/carnitine transporter 2); assay: in vitro; conditions: HEK293 cells that express OCTN2, probe Carnitine; remark: listed apart in the source
Description: TP_TRANSPORTER: inhibition of Carnitine uptake (Carnitine: 0.010? uM, TEA: 500 uM) in OCTN2-expressing HEK293 cells

[14] = molecular target: T2, OCTN2 (organic cation/carnitine transporter 2); assay: TP_TRANSPORTER: inhibition of Carnitine uptake (Carnitine: 0.010? uM, Trimethyllysine: 500 uM) in OCTN2-expressing HEK293 cells; format: functional, cell-based; design: scale not given: the % may be the effect or the level left; conditions: HEK293 cells that express OCTN2, probe Carnitine, read-out: Activity
[15] = molecular target: T2, OCTN2 (organic cation/carnitine transporter 2); assay: TP_TRANSPORTER: inhibition of Carnitine uptake (Carnitine: 0.010? uM, Valproic acid: 500 uM) in OCTN2-expressing HEK293 cells; format: functional, cell-based; design: scale not given: the % may be the effect or the level left; conditions: HEK293 cells that express OCTN2, probe Carnitine, read-out: Activity
[16] = molecular target: T2, OCTN2 (organic cation/carnitine transporter 2); assay: TP_TRANSPORTER: inhibition of Carnitine uptake (Carnitine: 0.010? uM, Verapamil: 500 uM) in OCTN2-expressing HEK293 cells; format: functional, cell-based; design: scale not given: the % may be the effect or the level left; conditions: HEK293 cells that express OCTN2, probe Carnitine, read-out: Activity
[17] = molecular target: T1, Organic cation/carnitine transporter 2; assay: TP_TRANSPORTER: inhibition of Carnitine uptake (Carnitine: 0.010? uM, AZT: 500 uM) in OCTN2-expressing HEK293 cells; format: functional, cell-based; conditions: hek293, 500 µM
[18] = substrate: C[N+](C)(C)CC(O)CC(=O)[O-]; assay: TP_TRANSPORTER: uptake, D-Carnitine in OCTN2-expressing HEK293 cells; format: functional, cell-based
[19] = substrate: CC(=O)O[C@H](CC(=O)[O-])C[N+](C)(C)C; assay: as §1; format: functional, cell-based

With `CN(CC(=O)O)C(=O)CN` [GLYCYLSARCOSINE] (H-Gly-[Sar]-OH) the Activity [1] was “is not an inhibitor [-]”.

Work on `Cc1c(F)c(N2CCNC(C)C2)cc2c1c(=O)c(C(=O)O)cn2C1CC1` (centres undefined) [GREPAFLOXACIN] yielded an activity at 500 µM [2] of 68.6%.

`N=C(N)N` [GUANIDINE] was tested, and the Activity [3] was “is not an inhibitor [-]” and the Activity [4] was “is not a substrate [-]”.

Work on `CCn1cc(C(=O)O)c(=O)c2cc(F)c(N3CCNC(C)C3)c(F)c21` (centres undefined) [LOMEFLOXACIN] yielded an activity at 500 µM [5] of 88.6%.

`CN1CCC[C@H]1c1cccnc1` [NICOTINE] was tested, and the activity at 500 µM [6] was 82.6%.

Molecule `CC1COc2c(N3CCN(C)CC3)c(F)cc3c(=O)c(C(=O)O)cn1c23` (centres undefined) [OFLOXACIN] has an activity at 500 µM [7] of 76.8%.

With `CCCN(CCC)S(=O)(=O)c1ccc(C(=O)O)cc1` [PROBENECID] the activity at 500 µM [8] was 77.4%.

With `CCN(CC)CCNC(=O)c1ccc(N)cc1` [PROCAINAMIDE] the activity at 500 µM [9] was 65.8%.

In the case of `COc1ccc(CN(CCN(C)C)c2ccccn2)cc1` [PYRILAMINE], the activity at 500 µM [10] is reported as 38.6% and the Activity [4] is reported as “substrate [+]”.

In the case of `C=C[C@H]1C[N@@]2CC[C@H]1C[C@@H]2[C@@H](O)c1ccnc2ccc(OC)cc12` [QUINIDINE], the activity at 500 µM [11] is reported as 9.1% and the Activity [4] is reported as “substrate [+]”.

Work on `C=C[C@H]1C[N@@]2CC[C@H]1C[C@H]2[C@H](O)c1ccnc2ccc(OC)cc12` [QUININE] yielded an activity at 500 µM [12] of 7.1%.

With `CC[N+](CC)(CC)CC` [TETRYLAMMONIUM] the activity at 500 µM [13] was 53.6% and the Activity [4] was “substrate [+]”.

Molecule `C[N+](C)(C)CCCC[C@H](N)C(=O)O` [TRIMETHYLLYSINE] has an activity at 500 µM [14] of 69%.

For `CCCC(CCC)C(=O)O` [VALPROIC ACID], the activity at 500 µM [15] was 82.3% and the Activity [4] was “substrate [+]”.

For `COc1ccc(CCN(C)CCCC(C#N)(c2ccc(OC)c(OC)c2)C(C)C)cc1OC` (centres undefined) [VERAPAMIL], the Activity [4] was “substrate [+]” and the activity at 500 µM [16] was 2.4%.

With `Cc1cn([C@H]2C[C@H](N=[N+]=[N-])[C@@H](CO)O2)c(=O)[nH]c1=O` [ZIDOVUDINE] the Activity [17] was “is not an inhibitor [-]”.

B1: Organic cation/carnitine transporter 2 (Homo sapiens) (protein)
chain: T1 sequence (O76082 whole entry)
B1 showed a Km [18] of 10.9 µM and a Km [19] of 8.5 µM.
